One assay deals with 1000 bp DNA / pUC19 DNA. As to the kind of experiment: Hfq·DNA aggregation: pelleting and protease assays. Type of assay: biochemical. The conditions noted are these: 3.5 µM Hfq hexamer, 15 nM 1000 bp DNA (pelleting) or 6 nM pUC19 (protease assay), 25 °C. As for the experimental part: Figure 5. CTD and RNAs inhibit DNA binding to Hfq by obstructing the basic rim patch. (A, B) Agarose gel electrophoretic mobility shift assays of 0–3.3 μM hexamer Hfq102, Hfq102-R16A, Hfq65 or Hfq65-R16A binding to 6 nM linear pUC19 DNA ([…]) at 25°C, stained with SYBR Gold. Hfq65 forms large aggregates that fail to enter the gel (Figure 5—figure supplement 1). (C, D) Line densitometry of DNA migration in (A, B). Free pUC19 (no Hfq) is shown in light grey. Samples with increasing Hfq concentration are shown in darker shades of grey. (E, F) RNA competition. Complexes of 0.5 μM Hfq102 hexamer and 6 nM linear pUC19 (black) were challenged by 0–2 μM RNA or DNA competitor (darker shades of red). pUC19 control in the absence of Hfq is shown in light grey. Icons indicate the binding surface for each competitor. See Figure 5—figure supplement 2 for gel images. Figure 5—figure supplement 1. Hfq CTD prevents aggregation with DNA. (A) Protease assay. 3.5 µM Hfq hexamer incubated with 6 nM linear (L) plus relaxed circular (N) pUC19 DNA at 25°C, for 30 min, in 50 mM Tris-HCl pH 7.5 and 10 mM CaCl2. The samples were divided in two. […] Digestion of Hfq65 and Hfq65-R16A with Proteinase K liberates DNA from Hfq•DNA aggregates, allowing it to be detected (lanes 9 and 10). […] The small proportion of Hfq65·DNA complexes remaining in the supernatant were only detected in the gel after treatment with salt. […]

The next assay has as its system linear pUC19 DNA. As to the kind of experiment: Hfq binding to linear pUC19 DNA, agarose gel mobility shift. The conditions noted are these: 0–3.3 μM Hfq hexamer, 6 nM linear pUC19, 25 °C, 1.5% agarose. As for the experimental part: Figure 5. CTD and RNAs inhibit DNA binding to Hfq by obstructing the basic rim patch. (A, B) Agarose gel electrophoretic mobility shift assays of 0–3.3 μM hexamer Hfq102, Hfq102-R16A, Hfq65 or Hfq65-R16A binding to 6 nM linear pUC19 DNA (2635 nts) at 25°C, stained with SYBR Gold. Hfq65 forms large aggregates that fail to enter the gel (Figure 5—figure supplement 1). (C, D) Line densitometry of DNA migration in (A, B). Free pUC19 (no Hfq) is shown in light grey. Samples with increasing Hfq concentration are shown in darker shades of grey. (E, F) RNA competition. Complexes of 0.5 μM Hfq102 hexamer and 6 nM linear pUC19 (black) were challenged by 0–2 μM RNA or DNA competitor (darker shades of red). pUC19 control in the absence of Hfq is shown in light grey. Icons indicate the binding surface for each competitor. See Figure 5—figure supplement 2 for gel images. Figure 5—figure supplement 1. Hfq CTD prevents aggregation with DNA. (A) Protease assay. 3.5 µM Hfq hexamer incubated with 6 nM linear (L) plus relaxed circular (N) pUC19 DNA at 25°C, for 30 min, in 50 mM Tris-HCl pH 7.5 and 10 mM CaCl2. The samples were divided in two. One set was diluted with a small amount of buffer and incubated at 25°C for an additional 2 hr. The second set was brought to 0.5% SDS, and 0.4 U Proteinase K (NEB) was added, followed by incubation at 50°C for an additional 2 hr. Loading dye was added to all samples just before they were loaded onto a native gel. […] Digestion of Hfq65 and Hfq65-R16A with Proteinase K liberates DNA from Hfq•DNA aggregates, allowing it to be detected (lanes 9 and 10). (B) Pelleting assay. 3.5 µM Hfq hexamer was incubated with 15 nM 1000 bp DNA (Thermo Scientific) at 25°C for 30 min in 50 mM Tris-HCl pH 7.5. Hfq·DNA aggregates were pelleted by centrifugation at 20,000 × g, 4°C, for 30 min. Supernatants were removed and split in two. The pellet and half the supernatant were brought to 1 M NaCl, and the Hfq·DNA aggregates were further disrupted by phenol-chloroform extraction, before all of the samples were loaded on an agarose gel. […] The small proportion of Hfq65·DNA complexes remaining in the supernatant were only detected in the gel after treatment with salt. […] Competition of Hfq-DNA interactions by small RNAs. EMSAs of 0.5 μM Hfq102 hexamer binding to 6 nM linearized pUC19 plasmid, that were competed with 0.1–2 μM RNAs or DNA at 30°C. Gels were run in a cold room. […]
Samples (10 µL) containing linear pUC19 (0.145 nmol bp), 0–3.333 µM Hfq hexamer, in 40 mM Tris-HCl pH 7.5, 0.14 mM EDTA, 35 mM NH4Cl, 3.7% (v/v) glycerol, 0.05% (w/v) bromophenol blue were incubated at 25°C for 30 min. […] The fluorescence intensity was measured on a line from the bottom edge of the well through the middle of the lane to visualize the migration of pUC19. […]

Entries after “also recorded” stand apart in the source; their conditions may differ.

With “Hfq65: truncated E. coli Hfq variant lacking the CTD”, the “Hfq·DNA aggregation” value in the assay with 1000 bp DNA / pUC19 DNA is given as “Nearly all of the Hfq65·DNA complexes were found in the pellet fraction; also recorded: form insoluble aggregates with DNA which do not enter the gel”. Also, the “binding to linear pUC19 DNA (gel mobility)” value (shortened to “binding to linear pUC19 DNA”) with linear pUC19 DNA is “At higher protein concentrations, the DNA formed aggregates that were too large to enter the gel”.
Take Hfq65-R16A: the “Hfq·DNA aggregation” value with 1000 bp DNA / pUC19 DNA is “more evenly distributed between pellet and supernatant fractions; also recorded: form insoluble aggregates with DNA which do not enter the gel”. The “binding to linear pUC19 DNA” value is “rescued the formation of insoluble aggregates; also recorded: complexes migrated more slowly than those formed by similar concentrations of Hfq102” with linear pUC19 DNA; “lowered the maximum gel retardation and increased the intensity of the ‘smear’” with linear pUC19 DNA (listed as R16A).
Take Hfq102: full-length E. coli Hfq: the “binding to linear pUC19 DNA” value in the assay on linear pUC19 DNA is given as “The mobility of the DNA-Hfq complexes decreased with added Hfq102”.

The values above are taken from paper PMC5606850, “Acidic C-terminal domains autoregulate the RNA chaperone Hfq” (eLife, 2017).
